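Cultured in 96-well plates, cells were exposed to test compound for 48 hours across five concentrations. The concentration for 50% growth inhibition is given as GI50. TGI denotes the concentration required for complete inhibition of growth.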
Tests used:
Assay in all cases: NCI tumour cell line growth inhibition, 48 h
COLO 205 colon = system: COLO 205 colon
MCF7 breast = system: MCF7 breast
NCI-H226 lung = system: NCI-H226 lung
NCI-H522 lung = system: NCI-H522 lung
UO-31 renal = system: UO-31 renal
M14 melanoma = system: M14 melanoma
SNB-19 CNS = system: SNB-19 CNS
MDA-MB-231 breast = system: MDA-MB-231 breast
A498 renal = system: A498 renal
K-562 leukemia = system: K-562 leukemia
RPMI-8226 leukemia = system: RPMI-8226 leukemia

| SMILES | TGI (COLO 205 colon) | TGI (MCF7 breast) | TGI (NCI-H226 lung) | TGI (NCI-H522 lung) | TGI (UO-31 renal) | TGI (M14 melanoma) | TGI (SNB-19 CNS) | TGI (MDA-MB-231 breast) | TGI (A498 renal) | TGI (K-562 leukemia) | TGI (RPMI-8226 leukemia) | GI50 (COLO 205 colon) | GI50 (MCF7 breast) | GI50 (NCI-H226 lung) | GI50 (NCI-H522 lung) | GI50 (UO-31 renal) | GI50 (A498 renal) | GI50 (K-562 leukemia) | GI50 (RPMI-8226 leukemia) | GI50 (SNB-19 CNS) |
| --- | --- | --- | --- | --- | --- | --- | --- | --- | --- | --- | --- | --- | --- | --- | --- | --- | --- | --- | --- | --- |
| CC1(C)CC(=O)C(=CN2C(=O)CNC2=S)C(=O)C1 | > 100 µM | > 100 µM | > 100 µM | > 100 µM | > 100 µM | > 100 µM | > 100 µM | > 100 µM | – | – | – | – | – | – | – | – | – | – | – | – |
| Cc1nnc(CC#N)n1NC(=O)CC#N | > 100 µM | > 100 µM | – | > 100 µM | > 100 µM | > 100 µM | > 100 µM | > 100 µM | > 100 µM | > 100 µM | – | – | – | – | – | – | – | – | – | – |
| CSC1NNC2(C(=O)N1)c1ccccc1-c1ccccc12 (centres undefined) | > 10 µM | > 10 µM | > 10 µM | > 10 µM | > 10 µM | > 10 µM | > 10 µM | > 10 µM | – | > 10 µM | > 10 µM | – | – | – | – | – | – | – | – | – |
| NC1CCCCC1N.O=S(=O)([O-])CCCN1CCN(CCO)CC1.O=S(=O)([O-])CCCN1CCN(CCO)CC1.[Pt+4] | 19.6 µM | > 100 µM | > 100 µM | 17.9 µM | > 100 µM | – | > 100 µM | – | > 100 µM | 44.8 µM | 20.5 µM | 1.82 µM | 3.26 µM | 5.26 µM | 2.73 µM | 13.5 µM | 6.05 µM | 4.81 µM | 0.423 µM | 43.1 µM |
| CC(=O)[C@H]1CCC2[C@@H]3CC=C4C(O)C(OS(=O)(=O)O)CC[C@]4(C)C3CC[C@@]21C (some centres undefined) | > 100 µM | > 100 µM | > 100 µM | > 100 µM | > 100 µM | – | > 100 µM | – | > 100 µM | > 100 µM | > 100 µM | – | – | – | – | – | – | – | – | – |
| CC1(C)O[C@@H](CP(c2cccc3ccccc23)c2cccc3ccccc23)[C@H](CP(c2cccc3ccccc23)c2cccc3ccccc23)O1 | > 100 µM | > 100 µM | > 100 µM | > 100 µM | > 100 µM | > 100 µM | > 100 µM | > 100 µM | – | > 100 µM | – | – | – | – | – | – | – | – | – | – |
| CCOC(=O)c1c(-c2ccc(OC)c(O)c2)c(C#N)c(=S)n(C2OC(CO)C(O)C(O)C2O)c1-c1ccccc1 (centres undefined) | > 100 µM | – | > 100 µM | – | > 100 µM | > 100 µM | > 100 µM | – | > 100 µM | > 100 µM | > 100 µM | – | – | – | – | – | – | – | – | – |
| Cc1ccc([N+](=O)[O-])cc1NC(=O)C(=O)C1CCC2=C(Sc3ccccc3N2)C1=O (centres undefined) | > 100 µM | > 100 µM | > 100 µM | > 100 µM | > 100 µM | > 100 µM | > 100 µM | > 100 µM | – | – | – | – | – | – | – | – | – | – | – | – |

— PubChem BioAssay (NCI)
